These results are taken from patent publication US7935819B2, “Cyclic urea derivatives, preparation thereof and pharmaceutical use thereof as kinase inhibitors” (Aventis Pharma S.A., priority 2006, dated 2011).

Like-named read-outs stand apart in the source and are kept apart here. Where only a bound is given, the exact number is not on record here.

The target in experiment [1] is MEF-IGF1R cells (stable clone transfected with hIGF-1R) (Homo sapiens, UniProt P08069). Nature of the experiment: Proliferation/viability of MEF-IGF1R (Test C), [14C]thymidine incorporation. It is filed as cell-based. To be noted: rhIGF1 100 ng/mL, 72 hours, read-out: Test C IC50. On the procedure: C) Measurement of the Proliferation/Viability of MEF-IGF1R
MEF-IGF1R cells (stable clone transfected with hIGF-1R), sequence (P08069 whole entry, change not shown): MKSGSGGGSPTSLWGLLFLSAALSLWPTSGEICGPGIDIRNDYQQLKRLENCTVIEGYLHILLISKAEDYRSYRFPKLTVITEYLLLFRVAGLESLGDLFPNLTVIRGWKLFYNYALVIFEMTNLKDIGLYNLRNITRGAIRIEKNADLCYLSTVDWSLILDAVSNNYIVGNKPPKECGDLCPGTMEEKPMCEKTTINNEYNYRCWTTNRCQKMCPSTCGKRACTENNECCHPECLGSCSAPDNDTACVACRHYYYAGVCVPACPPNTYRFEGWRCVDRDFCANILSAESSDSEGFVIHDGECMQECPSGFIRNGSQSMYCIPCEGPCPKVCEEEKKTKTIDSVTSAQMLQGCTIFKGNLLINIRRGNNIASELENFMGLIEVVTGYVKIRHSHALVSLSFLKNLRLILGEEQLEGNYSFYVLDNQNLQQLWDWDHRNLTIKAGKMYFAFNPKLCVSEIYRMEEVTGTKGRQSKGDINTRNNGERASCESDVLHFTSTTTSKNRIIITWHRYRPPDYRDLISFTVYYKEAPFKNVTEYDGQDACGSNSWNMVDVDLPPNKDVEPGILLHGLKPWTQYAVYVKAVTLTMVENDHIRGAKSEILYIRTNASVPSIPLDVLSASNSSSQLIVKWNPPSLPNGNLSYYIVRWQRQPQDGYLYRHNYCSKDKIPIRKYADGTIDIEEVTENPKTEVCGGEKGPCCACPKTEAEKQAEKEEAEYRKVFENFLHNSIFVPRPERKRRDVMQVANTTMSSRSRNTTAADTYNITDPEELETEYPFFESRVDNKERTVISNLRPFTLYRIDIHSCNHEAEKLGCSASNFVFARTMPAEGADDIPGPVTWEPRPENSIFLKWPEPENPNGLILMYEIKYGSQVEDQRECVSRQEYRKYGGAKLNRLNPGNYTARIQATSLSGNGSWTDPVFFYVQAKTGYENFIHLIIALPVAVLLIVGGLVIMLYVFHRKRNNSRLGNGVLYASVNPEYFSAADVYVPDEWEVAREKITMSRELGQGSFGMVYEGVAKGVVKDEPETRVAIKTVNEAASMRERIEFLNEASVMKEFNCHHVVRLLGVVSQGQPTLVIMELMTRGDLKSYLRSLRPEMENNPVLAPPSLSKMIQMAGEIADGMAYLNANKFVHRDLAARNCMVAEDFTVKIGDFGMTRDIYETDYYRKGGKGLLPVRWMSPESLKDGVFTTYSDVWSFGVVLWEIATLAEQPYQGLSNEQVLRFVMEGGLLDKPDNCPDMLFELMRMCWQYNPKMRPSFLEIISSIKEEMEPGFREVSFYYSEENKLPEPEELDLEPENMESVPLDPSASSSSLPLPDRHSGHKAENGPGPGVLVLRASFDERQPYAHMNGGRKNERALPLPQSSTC
Cell culture: the MEF-IGF1R cells (stable clone of cells transfected with the receptor hIGF-1R) are cultured at 37° C. under 5% CO2 in EMEM medium containing 10% FCS.
Test procedure: the cells are seeded at 5000 cells per well in 96-well Cytostar plates (Amersham) with 0.2 mL of EMEM culture medium at 37° C. for 18 hours. The cells are then washed twice with EMEM medium and left to culture without serum for 24 hours. The compounds are then added at various concentrations in the presence of rhIGF1 (100 ng/mL) and 0.1 μCi of Thymidine [^14C] (specific activity ˜50 mCi/mmol) to give 0.2 mL of volume per well. After incubation for 72 hours in the presence of the compound, at 37° C. under 5% CO2, the incorporation of Thymidine [^14C] is measured by counting the radioactivity on a Microbeta trilux counter (Perkin-Elmer). The IC50 is determined from 10 increasing concentrations of the compound.
(§1) (i) The tests are performed in duplicate and the mean of the two tests is calculated.
(§2) (ii) The value of the signal of the maximum response is calculated from the positive control: cells stimulated with IGF1 without compound.
(§3) (iii) Value of the signal of the minimum response is calculated from the negative control: cells not stimulated with IGF1 without compound.
(§4) (iv) By using these values as maximum (100%) and minimum (0%), respectively, the data were normalized so as to give a percentage of the maximum response.
(§5) (v) A curve of dose response is plotted and the IC50 (the concentration of which the compound induces a 50% decrease in the signal) of the compound is calculated by non-linear regression analysis.
In general terms: Uptake of a labelled nucleoside into DNA is a usual measure of proliferation.

In experiment [2] the target is T1, IGF-1R (human cytoplasmic domain fused with GST) (Homo sapiens, UniProt P08069).
T1 construct: The human cytoplasmic domain of IGF-1R was cloned by fusion with glutathione S-transferase (GST); made in house; host or cells: SF21 insect cells (baculovirus, pFastBac-GST)
T1 sequence (P08069 960-1367 limits assumed): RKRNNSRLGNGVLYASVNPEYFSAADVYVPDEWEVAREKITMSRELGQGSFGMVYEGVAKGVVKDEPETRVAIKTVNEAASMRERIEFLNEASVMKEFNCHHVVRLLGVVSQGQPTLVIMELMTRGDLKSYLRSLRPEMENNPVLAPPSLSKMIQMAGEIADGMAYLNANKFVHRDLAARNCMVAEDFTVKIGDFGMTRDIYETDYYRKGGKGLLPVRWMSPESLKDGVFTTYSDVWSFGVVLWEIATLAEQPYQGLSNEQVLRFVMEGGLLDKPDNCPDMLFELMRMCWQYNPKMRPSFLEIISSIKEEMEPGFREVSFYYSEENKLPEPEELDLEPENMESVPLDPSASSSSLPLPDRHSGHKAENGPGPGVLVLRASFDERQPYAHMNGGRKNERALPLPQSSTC
Nature of the experiment: Kinase IGF-1R test (Test A): inhibition of autophosphorylation of the enzyme, HTRF. It is filed as biochemical. The conditions noted are these: 120 μM ATP. On the procedure: A) Experimental Protocol for the Kinase IGF-1R Test:
The inhibitory activity of the compounds on IGF1R is determined by measuring the inhibition of autophosphorylation of the enzyme using a time-resolved fluorescence test (HTRF). The human cytoplasmic domain of IGF-1R was cloned by fusion with glutathione S-transferase (GST) in the baculovirus expression vector pFastBac-GST. The protein is expressed in the SF21 cells and purified to about 80% homogeneity. For the enzymatic test, the test compound at 10 mM dissolved in DMSO is diluted in 1/3 steps in a 50 mM Hepes, pH 7.5, 5 mM MnCl2, 50 mM NaCl, 3% Glycerol, 0.025% Tween 20 buffer. To measure the inhibition, the successive dilutions of the compound are preincubated for 30 minutes and 90 minutes in the presence of 5 nM of enzyme, the final DMSO concentration not exceeding 1%. The enzymatic reaction is initiated to have a final ATP concentration of 120 μM, and is stopped after 5 minutes by addition of 100 mM Hepes, pH 7.0 buffer containing 0.4 M of potassium fluoride, 133 mM EDTA, 0.1% BSA, the XL665-labelled antibody anti-GST and the anti-phosphotyrosine antibody conjugated to europium cryptate Eu—K (Cis-Bio Int.). The characteristics of the two fluorophores, XL-665 and Eu—K, are available in G. Mathis et al., Anticancer Research, 1997, 17, pages 3011-3014. The energy transfer between the excited europium cryptate to the acceptor XL665 is proportional to the degree of autophosphorylation of IGF-1R. The specific long-lasting signal of XL-665 is measured in a GENios Pro TECAN plate counter. The inhibition of autophosphorylation of IGF-1R at time 30 minutes and 90 minutes with the test compounds of the invention is calculated relative to a 1% in DMSO control, whose activity is measured in the absence of compound. The curve representing the percentage of inhibition as a function of the log of the concentration is established to determine the concentration corresponding to 50% inhibition (IC50).

Another experiment concerns the target T2, IGF1R in MCF-7 cells (Homo sapiens, UniProt P08069).
T2 construct: endogenous in cells; host or cells: MCF-7 cells
Nature of the experiment: Autophosphorylation of IGF-1R in MCF7 cells after stimulation with IGF-1 (Test B), ELISA. The experiment is classed as cell-based. The conditions noted are these: compound added one hour before IGF1 stimulation (10 minutes). On the procedure:
B) Measurement of the Autophosphorylation of IGF-1r in MCF7 Cells after Stimulation with IGF-1
Cell Culturing and Execution of the Test:
The autophosphorylation of IGF1R in the IGF1-induced cells is evaluated by means of an ELISA technique (Enzyme Linked ImmunoSorbent Assay). The MCF-7 are seeded at 60 000 cells per well in 6-well plates and incubated at 37° C., 5% CO2 in medium containing 10% serum. After one night in 10% serum, the cells are deprived of serum for 24 hours. The compounds are added to the medium one hour before stimulation with IGF1. After 10 minutes of stimulation with IGF1, the cells are lysed with a buffer (Hepes 50 mM pH 7.6, Triton X100 1%, orthovanadate 2 mM, protease inhibitor cocktail). The cell lysates are incubated on a 96-well plate precoated with an anti-IGF1R antibody, followed by incubation with an anti-phosphotyrosine antibody coupled to the enzyme peroxidase. The level of peroxidase activity (measured by OD with a luminescent substrate) reflects the phosphorylation status of the receptor.
as §1, §2, §3, §4, §5

Setting [3] is: preincubation with enzyme 30 minutes, read-out: Test A 30′ IC50.
Where [4] appears, read: preincubation with enzyme 90 minutes, read-out: Test A 90′ IC50.

T2 sequence (P08069 31-1367): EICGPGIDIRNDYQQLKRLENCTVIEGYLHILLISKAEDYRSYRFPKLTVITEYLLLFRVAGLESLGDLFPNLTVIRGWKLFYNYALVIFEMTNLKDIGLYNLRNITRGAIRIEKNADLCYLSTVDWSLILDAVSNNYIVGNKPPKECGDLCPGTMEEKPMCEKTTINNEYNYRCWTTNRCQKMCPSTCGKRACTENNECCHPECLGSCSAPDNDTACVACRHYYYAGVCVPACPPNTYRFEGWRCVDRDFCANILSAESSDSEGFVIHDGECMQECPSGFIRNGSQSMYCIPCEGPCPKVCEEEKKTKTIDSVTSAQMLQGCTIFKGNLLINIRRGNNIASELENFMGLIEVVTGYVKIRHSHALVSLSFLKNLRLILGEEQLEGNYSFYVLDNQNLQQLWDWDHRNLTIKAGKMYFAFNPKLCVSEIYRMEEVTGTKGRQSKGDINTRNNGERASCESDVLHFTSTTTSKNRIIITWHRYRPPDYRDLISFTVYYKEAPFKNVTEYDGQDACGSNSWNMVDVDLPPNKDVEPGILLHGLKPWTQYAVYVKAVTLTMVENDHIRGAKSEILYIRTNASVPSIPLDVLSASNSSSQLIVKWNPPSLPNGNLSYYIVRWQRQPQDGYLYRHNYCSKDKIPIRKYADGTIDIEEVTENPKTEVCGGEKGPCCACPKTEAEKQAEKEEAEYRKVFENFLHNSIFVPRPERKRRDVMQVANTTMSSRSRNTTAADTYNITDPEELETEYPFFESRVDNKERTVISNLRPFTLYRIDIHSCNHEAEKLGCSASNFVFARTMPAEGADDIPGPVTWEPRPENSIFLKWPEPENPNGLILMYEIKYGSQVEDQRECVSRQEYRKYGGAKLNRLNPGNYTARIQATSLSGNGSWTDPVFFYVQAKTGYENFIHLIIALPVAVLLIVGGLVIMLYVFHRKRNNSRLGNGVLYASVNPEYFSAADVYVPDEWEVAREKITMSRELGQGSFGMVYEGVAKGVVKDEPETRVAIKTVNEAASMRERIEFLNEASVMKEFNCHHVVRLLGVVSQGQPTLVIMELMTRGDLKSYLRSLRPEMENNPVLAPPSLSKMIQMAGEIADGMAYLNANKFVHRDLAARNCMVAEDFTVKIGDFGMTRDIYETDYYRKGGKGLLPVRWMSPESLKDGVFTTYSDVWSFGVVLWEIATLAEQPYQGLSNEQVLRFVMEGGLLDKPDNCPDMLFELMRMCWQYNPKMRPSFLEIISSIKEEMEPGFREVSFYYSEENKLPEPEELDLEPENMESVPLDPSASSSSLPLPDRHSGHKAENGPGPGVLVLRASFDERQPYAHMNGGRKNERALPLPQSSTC

For orientation: IC50 means the concentration needed to halve the response being measured. Consider `CC(C)(C)c1ccc(N2C(=O)N(Cc3ccnc(Nc4cccnc4)n3)C(C)(C)C2=O)cc1` [Example 1, 3-(4-tert-butylphenyl)-5,5-dimethyl-1-[2-(pyridin-3-ylamino)pyrimidin-4-ylmethyl]imidazolidine-2,4-dione], for which the GI50 in experiment [1] was below 10 nM. Besides, the 50% inhibitory concentration (IC50) was 10 to 100 nM in experiment [2] (setting [3]), below 10 nM in experiment [2] (setting [4]) and below 10 nM against IGF1R in MCF-7 cells.

On to `CC(C)(C)c1ccc(N2C(=O)N(Cc3ccnc(Nc4cncnc4)n3)C(C)(C)C2=O)cc1` [Example 8, 3-(4-tert-butylphenyl)-5,5-dimethyl-1-{[2-(pyrimidin-5-ylamino)pyrimidin-4-yl]methyl}imidazolidine-2,4-dione], for which the GI50 in experiment [1] is below 10 nM. For the same compound, the values for the IC50 (in experiment [2] (setting [3]); in experiment [2] (setting [4]); against IGF1R in MCF-7 cells) were 10 to 100 nM, below 10 nM and below 10 nM, respectively.

Turning to `CC(C)(C)c1ccc(N2C(=O)N(Cc3ccnc(NC(=O)NC4CC4)c3)C(C)(C)C2=O)cc1` [Example 13, 1-(4-{[3-(4-tert-butylphenyl)-5,5-dimethyl-2,4-dioxoimidazolidin-1-yl]methyl}pyridin-2-yl)-3-cyclopropylurea], the GI50 in experiment [1] is 10 to 100 nM. Also, the IC50 (in experiment [2] (setting [3]); in experiment [2] (setting [4]); at IGF1R in MCF-7 cells) was 10 to 100 nM throughout.

Take `CC(C)(C)c1ccc(N2C(=O)N(Cc3ccnc(NC(=O)NC4CCC4)c3)C(C)(C)C2=O)cc1` [Example 14, 1-(4-{[3-(4-tert-butylphenyl)-5,5-dimethyl-2,4-dioxoimidazolidin-1-yl]methyl}pyridin-2-yl)-3-cyclobutylurea]: the GI50 in experiment [1] lay in the range of 10 to 100 nM. Further, the half-maximal inhibitory concentration (IC50) (in experiment [2] (setting [3]); in experiment [2] (setting [4]); at IGF1R in MCF-7 cells) was 10 to 100 nM in each case.

Take `CC(C)(C)c1ccc(N2C(=O)N(Cc3ccnc(NC(=O)N4CCC4)c3)C(C)(C)C2=O)cc1` [Example 18, N-(4-{[3-(4-tert-butylphenyl)-5,5-dimethyl-2,4-dioxoimidazolidin-1-yl]methyl}pyridin-2-yl)azetidine-1-carboxamide]: the GI50 in experiment [1] lay in the range of 10 to 100 nM. The figures for the half-maximal inhibitory concentration (IC50) (in experiment [2] (setting [3]); in experiment [2] (setting [4]); on IGF1R in MCF-7 cells) were 10 to 100 nM, 10 to 100 nM and below 10 nM, respectively.

Turning to `CC(C)(C)c1ccc(N2C(=O)N(Cc3ccnc(NC(=O)N4CCCC4)c3)C(C)(C)C2=O)cc1` [Example 19, N-(4-{[3-(4-tert-butylphenyl)-5,5-dimethyl-2,4-dioxoimidazolidin-1-yl]methyl}pyridin-2-yl)pyrrolidine-1-carboxamide], in experiment [1], the GI50 was in the range of 10 to 100 nM. Moreover, the figures for the 50% inhibitory concentration (IC50) (in experiment [2] (setting [3]); in experiment [2] (setting [4]); on IGF1R in MCF-7 cells) were 10 to 100 nM, 10 to 100 nM and below 10 nM, respectively.

Consider `CCCCNC(=O)Nc1cc(CN2C(=O)N(c3ccc(C(C)(C)C)cc3)C(=O)C2(C)C)ccn1` [Example 28, 1-butyl-3-(4-{[3-(4-tert-butylphenyl)-5,5-dimethyl-2,4-dioxoimidazolidin-1-yl]methyl}pyridin-2-yl)urea], for which the GI50 in experiment [1] was above 100 nM. Moreover, the concentration for half-maximal inhibition (IC50) (in experiment [2] (setting [3]); in experiment [2] (setting [4]); on IGF1R in MCF-7 cells) was 10 to 100 nM in each case.

In the case of `CN(C)CC(=O)N1CC(C)(C)c2ccc(N3C(=O)N(Cc4ccnc(Nc5cccnc5)c4)C(C)(C)C3=O)cc21` [Example 31B, 3-[1-(N,N-dimethylglycyl)-3,3-dimethyl-2,3-dihydro-1H-indol-6-yl]-5,5-dimethyl-1-{[2-(pyridin-3-ylamino)pyridin-4-yl]methyl}imidazolidine-2,4-dione], in experiment [1], the GI50 was below 10 nM. Also, the IC50 in experiment [2] (setting [3]) was above 100 nM; in experiment [2] (setting [4]), 10 to 100 nM; at IGF1R in MCF-7 cells it was 10 to 100 nM.

With `CN(C)CC(=O)N1CC(C)(C)c2ccc(N3C(=O)N(Cc4ccnc(NC(=O)N(C)C)c4)C(C)(C)C3=O)cc21` [Example 31C, 3-[4-({3-[1-(N,N-dimethylglycyl)-3,3-dimethyl-2,3-dihydro-1H-indol-6-yl]-5,5-dimethyl-2,4-dioxoimidazolidin-1-yl}methyl)pyridin-2-yl]-1,1-dimethylurea], the GI50 in experiment [1] was in the range of 10 to 100 nM. The IC50 was above 100 nM in experiment [2] (setting [3]), above 100 nM in experiment [2] (setting [4]) and 10 to 100 nM against IGF1R in MCF-7 cells.

For the compound `CC(C)NCC(=O)N1CC(C)(C)c2ccc(N3C(=O)N(Cc4ccnc(Nc5cccnc5)c4)C(C)(C)C3=O)cc21` [Example 31D, 3-[1-(N-isopropylglycyl)-3,3-dimethyl-2,3-dihydro-1H-indol-6-yl]-5,5-dimethyl-1-{[2-(pyridin-3-ylamino)pyridin-4-yl]methyl}imidazolidine-2,4-dione], the GI50 in experiment [1] lay in the range of 10 to 100 nM. Further, the concentration for half-maximal inhibition (IC50) was above 100 nM in experiment [2] (setting [3]), 10 to 100 nM in experiment [2] (setting [4]) and 10 to 100 nM at IGF1R in MCF-7 cells.

In the case of `CC(C)NCC(=O)N1CC(C)(C)c2ccc(N3C(=O)N(Cc4ccnc(NC(=O)N(C)C)c4)C(C)(C)C3=O)cc21` [Example 31E, 3-[4-({3-[1-(N-isopropylglycyl)-3,3-dimethyl-2,3-dihydro-1H-indol-6-yl]-5,5-dimethyl-2,4-dioxoimidazolidin-1-yl}methyl)pyridin-2-yl]-1,1-dimethylurea], the GI50 in experiment [1] lay in the range of 10 to 100 nM. Also, the IC50 in experiment [2] (setting [3]) is above 100 nM; in experiment [2] (setting [4]) it was above 100 nM; at IGF1R in MCF-7 cells it was 10 to 100 nM.

`CC(C)(C)c1ccc(N2C(=O)N(Cc3ccnc(Nc4ccc(CN5CCCC5)cc4)c3)C(C)(C)C2=O)cc1` [Example 31F, 3-(4-tert-butylphenyl)-5,5-dimethyl-1-[(2-{[4-(pyrrolidin-1-ylmethyl)phenyl]amino}pyridin-4-yl)methyl]imidazolidine-2,4-dione]: in experiment [1], the GI50 was below 10 nM. Also, the IC50 in experiment [2] (setting [3]) was 10 to 100 nM; in experiment [2] (setting [4]), below 10 nM; against IGF1R in MCF-7 cells it was 10 to 100 nM.

On to `CC(C)(C)c1ccc(N2C(=O)N(Cc3ccnc(Nc4cccc(CN5CCCC5)c4)c3)C(C)(C)C2=O)cc1` [Example 31G, 3-(4-tert-butylphenyl)-5,5-dimethyl-1-[(2-{[3-(pyrrolidin-1-ylmethyl)phenyl]amino}pyridin-4-yl)methyl]imidazolidine-2,4-dione], for which, in experiment [1], the GI50 is below 10 nM. Further, the concentration for half-maximal inhibition (IC50) in experiment [2] (setting [3]) is 10 to 100 nM; in experiment [2] (setting [4]) it was below 10 nM; against IGF1R in MCF-7 cells, 10 to 100 nM.

Turning to `CC(C)(C)c1ccc(N2C(=O)N(Cc3ccnc(Nc4cccc(CCN5CCCC5)c4)c3)C(C)(C)C2=O)cc1` [Example 31H, 3-(4-tert-butylphenyl)-5,5-dimethyl-1-[(2-{[3-(2-pyrrolidin-1-ylethyl)phenyl]amino}pyridin-4-yl)methyl]imidazolidine-2,4-dione], the GI50 in experiment [1] is below 10 nM. In addition, the values for the concentration for half-maximal inhibition (IC50) (in experiment [2] (setting [3]); in experiment [2] (setting [4]); at IGF1R in MCF-7 cells) were 10 to 100 nM, below 10 nM and below 10 nM, respectively.
